Source: the NIST ThermoML archive (doi:10.1021/je050034s)

Assay: molar heat capacity at saturation pressure

c1ccc(Cc2ccccc2)cc1 [diphenylmethane]
molar heat capacity [J/K/mol]
Conditions | Crystal | Liquid
55.01 K, Vacuum adiabatic calorimetry | 57.11 | –
57.89 K, Vacuum adiabatic calorimetry | 59.58 | –
59.91 K, Vacuum adiabatic calorimetry | 61.04 | –
60 K, Vacuum adiabatic calorimetry | 61.11 | –
63.59 K, Vacuum adiabatic calorimetry | 63.66 | –
65.43 K, Vacuum adiabatic calorimetry | 65.06 | –
69.82 K, Vacuum adiabatic calorimetry | 68.05 | –
70 K, Vacuum adiabatic calorimetry | 68.16 | –
76.62 K, Vacuum adiabatic calorimetry | 72.36 | –
78.19 K, Vacuum adiabatic calorimetry | 73.39 | –
80 K, Vacuum adiabatic calorimetry | 74.47 | –
81.13 K, Vacuum adiabatic calorimetry | 75.18 | –
84.19 K, Vacuum adiabatic calorimetry | 76.96 | –
85.52 K, Vacuum adiabatic calorimetry | 77.76 | –
88.47 K, Vacuum adiabatic calorimetry | 79.51 | –
90 K, Vacuum adiabatic calorimetry | 80.38 | –
96.79 K, Vacuum adiabatic calorimetry | 84.28 | –
100 K, Vacuum adiabatic calorimetry | 86.12 | –
105.91 K, Vacuum adiabatic calorimetry | 89.5 | –
115.55 K, Vacuum adiabatic calorimetry | 94.96 | –
120 K, Vacuum adiabatic calorimetry | 97.5 | –
125.31 K, Vacuum adiabatic calorimetry | 100.54 | –
135.12 K, Vacuum adiabatic calorimetry | 106.25 | –
140 K, Vacuum adiabatic calorimetry | 109.13 | –
145.06 K, Vacuum adiabatic calorimetry | 112.15 | –
155.05 K, Vacuum adiabatic calorimetry | 118.34 | –
160 K, Vacuum adiabatic calorimetry | 121.47 | –
165.03 K, Vacuum adiabatic calorimetry | 124.68 | –
175.01 K, Vacuum adiabatic calorimetry | 131.04 | –
180 K, Vacuum adiabatic calorimetry | 134.55 | –
185 K, Vacuum adiabatic calorimetry | 138.14 | –
195.05 K, Vacuum adiabatic calorimetry | 145.11 | –
200 K, Vacuum adiabatic calorimetry | 148.68 | –
205.14 K, Vacuum adiabatic calorimetry | 152.48 | –
215.25 K, Vacuum adiabatic calorimetry | 160.17 | –
220 K, Vacuum adiabatic calorimetry | 163.86 | –
225.34 K, Vacuum adiabatic calorimetry | 168.15 | –
235.38 K, Vacuum adiabatic calorimetry | 176.42 | –
240 K, Vacuum adiabatic calorimetry | 180.3 | –
245.37 K, Vacuum adiabatic calorimetry | 185.01 | –
246.51 K, Vacuum adiabatic calorimetry | 185.99 | –
255.32 K, Vacuum adiabatic calorimetry | 193.89 | –
257.33 K, Vacuum adiabatic calorimetry | 195.76 | –
260 K, Vacuum adiabatic calorimetry | 198.12 | –
268.6 K, Vacuum adiabatic calorimetry | 206.43 | –
279.29 K, Vacuum adiabatic calorimetry | 217.16 | –
280 K, Vacuum adiabatic calorimetry | 217.44 | –
289.28 K, Vacuum adiabatic calorimetry | 229.55 | –
289.37 K, Vacuum adiabatic calorimetry | 229.9 | –
298.15 K, Vacuum adiabatic calorimetry | 236.26 | 267.36
298.37 K, Vacuum adiabatic calorimetry | 236.5 | 267.48
300 K, Vacuum adiabatic calorimetry | – | 268.32
303.38 K, Vacuum adiabatic calorimetry | – | 270.07
305.34 K, Vacuum adiabatic calorimetry | – | 270.99
305.59 K, Vacuum adiabatic calorimetry | – | 271.14
313.82 K, Vacuum adiabatic calorimetry | – | 275.26
320 K, Vacuum adiabatic calorimetry | – | 278.43
325.59 K, Vacuum adiabatic calorimetry | – | 281.23
339.57 K, Vacuum adiabatic calorimetry | – | 288.4
340 K, Vacuum adiabatic calorimetry | – | 288.62
356.66 K, Vacuum adiabatic calorimetry | – | 297.31
360 K, Vacuum adiabatic calorimetry | – | 299.1
373.63 K, Vacuum adiabatic calorimetry | – | 306.34
380 K, Vacuum adiabatic calorimetry | – | 309.56
390.49 K, Vacuum adiabatic calorimetry | – | 314.87
400 K, Vacuum adiabatic calorimetry | – | 319.92
407.29 K, Vacuum adiabatic calorimetry | – | 323.8
420 K, Vacuum adiabatic calorimetry | – | 330.39
424.08 K, Vacuum adiabatic calorimetry | – | 332.47
438.41 K, Vacuum adiabatic calorimetry | – | 339.81
440 K, Vacuum adiabatic calorimetry | – | 340.5
460 K, Vacuum adiabatic calorimetry | – | 349.5
480 K, Small sample (50 mg) DSC | – | 358.67
500 K, Small sample (50 mg) DSC | – | 367.6
520 K, Small sample (50 mg) DSC | – | 376.3
540 K, Small sample (50 mg) DSC | – | 384.6
560 K, Small sample (50 mg) DSC | – | 392.7
580 K, Small sample (50 mg) DSC | – | 400.5
600 K, Small sample (50 mg) DSC | – | 407.9
620 K, Small sample (50 mg) DSC | – | 415.1
640 K, Small sample (50 mg) DSC | – | 422.3
660 K, Small sample (50 mg) DSC | – | 429.6
680 K, Small sample (50 mg) DSC | – | 437.4
700 K, Small sample (50 mg) DSC | – | 446.9
